# Assay results reported in US4352803A, “Novel naphthyridine derivatives, intermediates thereof, processes for preparation thereof, and use thereof” (Dainippon Pharmaceutical Co., Ltd., priority 1978, dated 1982).
# Like-named read-outs stand apart in the source and are kept apart here.
# Experiments:
# [1] = tested on: Salmonella typhimurium 8-9; assay: In vitro antibacterial activity (MIC), Salmonella typhimurium 8-9; assay type: cell-based; conditions: Salmonella enterica; Salmonella typhimurium 8-9; read-out: minimum inhibitory concentration (MIC)
# Excerpt: (§1) (MIC) (μg/ml) Method; Chemotherapy, 22(6), 1126 (1974)
# [2] = tested on: Staphylococcus aureus No. 50774; assay: In vitro antibacterial activity (MIC), Staphylococcus aureus No. 50774; assay type: cell-based; conditions: Staphylococcus aureus No. 50774; read-out: minimum inhibitory concentration (MIC)
# Excerpt: as §1
# [3] = tested on: Staphylococcus aureus 209P JC-1; assay: In vitro antibacterial activity (MIC), Staphylococcus aureus 209P JC-1; assay type: cell-based; conditions: Staphylococcus aureus 209P JC-1; read-out: minimum inhibitory concentration (MIC)
# Excerpt: as §1
# [4] = tested on: Corynebacterium pyogenes C-21; assay: In vitro antibacterial activity (MIC), Corynebacterium pyogenes C-21; assay type: cell-based; conditions: Rhodococcus (subgen. Prescottella) equi, C21; Corynebacterium pyogenes C-21; read-out: minimum inhibitory concentration (MIC)
# Excerpt: as §1
# [5] = tested on: Proteus morganii Kono; assay: In vitro antibacterial activity (MIC), Proteus morganii Kono; assay type: cell-based; conditions: Morganella morganii, read-out: minimum inhibitory concentration (MIC)
# Excerpt: as §1
# [6] = tested on: Salmonella enteritidis No. 1891; assay: In vitro antibacterial activity (MIC), Salmonella enteritidis No. 1891; assay type: cell-based; conditions: Salmonella enterica; Salmonella enteritidis No. 1891; read-out: minimum inhibitory concentration (MIC)
# Excerpt: as §1
# [7] = tested on: Shigella flexneri 4a P-330; assay: In vitro antibacterial activity (MIC), Shigella flexneri 4a P-330; assay type: cell-based; conditions: 4AP330, read-out: minimum inhibitory concentration (MIC)
# Excerpt: as §1
# [8] = in vivo; conditions: mouse, in vivo, po
# Experimental: The number of dead mice was counted after 7 days, and the value of median lethal dose (LD50, mg/kg) was calculated in accordance with the Behrens-Kaerber method.
# [9] = tested on: Pseudomonas aeruginosa Tsuchijima; assay: In vitro antibacterial activity (MIC), Pseudomonas aeruginosa Tsuchijima; assay type: cell-based; conditions: read-out: minimum inhibitory concentration (MIC)
# Excerpt: as §1
# [10] = tested on: Serratia marcescens IFC 3736; assay: In vitro antibacterial activity (MIC), Serratia marcescens IFC 3736; assay type: cell-based
# Excerpt: as §1
# [11] = tested on: Enterobacter cloacae P-2540; assay: In vitro antibacterial activity (MIC), Enterobacter cloacae P-2540; assay type: cell-based
# Excerpt: as §1
# [12] = tested on: Pseudomonas aeruginosa No. 12; assay: In vitro antibacterial activity (MIC), Pseudomonas aeruginosa No. 12; assay type: cell-based; conditions: Pseudomonas aeruginosa No. 12; read-out: minimum inhibitory concentration (MIC)
# Excerpt: as §1
# [13] = tested on: Pseudomonas aeruginosa No. 12; assay: in vivo efficacy on the ascending kidney infection in mice; set-up: species or system mice (ddY-S); conditions: for ED50: 120 h, ascending kidney infection with Pseudomonas aeruginosa No. 12, po, mice
# Experimental: Female mice (ddY-S) weighing 22 to 30 g were anesthetized by intravenous injection of sodium pentobarbital at a dose of 50 mg/kg. Through a small suprapubic incision, the urinary bladder was exposed and then infected by injecting 0.1 ml of a 1:10,000 dilution of Pseudomonas aeruginosa No. 12 cultured for 20 hours in trypto-soy broth, using 0.25 ml syringe with 0.25 mm needle. The mice were restrained from drinking water for a period from 1 day before to 1 day after the infection and treated twice a day for 3 days starting on the day of infection. On the 5th day after infection, the kidneys were harvested for the detection of the bacteria, transversely bisected and stamped on King A Agar, which were incubated at 37° C. overnight. No bacterial finding in the kidneys was regarded as protected from the ascending kindey infection. ED50 values were calculated by probit analysis.
# [14] = tested on: Pseudomonas aeruginosa No. 12; assay: in vivo efficacy against systemic infection in mice, Pseudomonas aeruginosa No. 12; conditions: NO.12, in Mus musculus, po, 168 h
# Experimental: Male mice (ddY) weighing about 20 g
# (3) Pseudomonas aeruginosa No. 12;
# (about 5 × 10^3 cells/mouse) of a bacterial
# (§2) suspension in trypto-soy broth with 4% mucin.
# (§3) Twice, about 5 minutes and 6 hours after infection.
# The numerals in the table show ED50 (mg/kg). ED50 values were
# [15] = tested on: Escherichia coli P-5101; assay: in vivo efficacy against systemic infection in mice, Escherichia coli P-5101; conditions: P5101, in Mus musculus, po, 168 h
# Experimental: Male mice (ddY) weighing about 20 g
# Intraperitoneal infection with (about
# 9 × 10^6 cells/mouse) of a bacterial
# as §2, §3
# [16] = tested on: Streptococcus faecalis P-2473; assay: In vitro antibacterial activity (MIC), Streptococcus faecalis P-2473; assay type: cell-based; conditions: Enterococcus faecalis
# Excerpt: as §1
# [17] = Plasma level in dogs; assay type: in vivo, Beagle dogs; conditions: for concentration at 2 h: 2 hr after oral 25 mg/kg; for concentration at 3 h: 3 hr after oral 25 mg/kg; for concentration at 6 h: 6 hr after oral 25 mg/kg; for concentration at 8 h: 8 hr after oral 25 mg/kg; for concentration at 10 h: 10 hr after oral 25 mg/kg
# Experimental: Two male Beagle dogs weighing 12 kg each were orally given a capsule containing one of compounds 1 and 2 at a dose of 25 mg/kg with 200 ml of milk respectively. Blood samples were taken by venipuncture from the two dogs at each 0.5, 1, 2, 3, 6, 8 and 10 hours after administration, and centrifuged individually to separate the plasma.
# Drug levels were determined by the thin-layer cup-plate method using Escherichia coli Kp as an indicator organism.
# [18] = tested on: Escherichia coli P-140a; assay: In vitro antibacterial activity (MIC), Escherichia coli P-140a; assay type: cell-based; conditions: read-out: minimum inhibitory concentration (MIC)
# Excerpt: as §1
# [19] = tested on: Streptococcus pyogenes 65A; assay: In vitro antibacterial activity (MIC), Streptococcus pyogenes 65A; assay type: cell-based; conditions: Streptococcus pyogenes 65A; read-out: minimum inhibitory concentration (MIC)
# Excerpt: as §1
# [20] = tested on: Klebsiella pneumoniae No. 13; assay: In vitro antibacterial activity (MIC), Klebsiella pneumoniae No. 13; assay type: cell-based; conditions: Klebsiella pneumoniae No. 13; read-out: minimum inhibitory concentration (MIC)
# Excerpt: as §1
# [21] = tested on: Shigella flexneri 2a; assay: In vitro antibacterial activity (MIC), Shigella flexneri 2a; assay type: cell-based; conditions: read-out: minimum inhibitory concentration (MIC)
# Excerpt: as §1
# [22] = tested on: Escherichia coli NIHJ JC-2; assay: In vitro antibacterial activity (MIC), Escherichia coli NIHJ JC-2; assay type: cell-based
# Excerpt: as §1
# [23] = Urinary excretion in dogs; assay type: in vivo, Beagle dogs; conditions: for concentration at 24 h / dose excreted at 24 h: dog, urine, po, 25 mg/kg, urine pooled over 24 hours, oral 25 mg/kg; for dose excreted at 24 h: read-out: urinary recovery
# [24] = tested on: Staphylococcus aureus No. 50774; assay: in vivo efficacy against systemic infection in mice, Staphylococcus aureus No. 50774; conditions: NO.50774, in Mus musculus, po, 336 h
# Experimental: Male mice (ddY) weighing about 20 g
# Intravenous infection with (about
# 5 × 10^8 cells/mouse) of a bacterial
# as §3
# [25] = tested on: Proteus mirabilis P-2381; assay: In vitro antibacterial activity (MIC), Proteus mirabilis P-2381; assay type: cell-based
# Excerpt: as §1
# [26] = tested on: Escherichia coli P-5101; assay: In vitro antibacterial activity (MIC), Escherichia coli P-5101; assay type: cell-based; conditions: P5101; Escherichia coli P-5101; read-out: minimum inhibitory concentration (MIC)
# Excerpt: as §1
# [27] = tested on: Gram-positive bacteria and Gram-negative bacteria; assay: In vitro antibacterial activity against 19 strains of bacteria (overall); assay type: cell-based; conditions: comparisons are with compounds of the invention
# Excerpt: as §1
# [28] = tested on: Gram-positive and Gram-negative bacteria; assay: in vivo therapeutic efficacy against systemic infections in mice (overall); set-up: species or system mice (ddY)
# [29] = Pseudomonas aeruginosa Tsuchijima
# [30] = IFC3736, Serratia marcescens IFC 3736, read-out: minimum inhibitory concentration (MIC)
# [31] = P2540, Enterobacter cloacae P-2540, read-out: minimum inhibitory concentration (MIC)
# [32] = P2473, Streptococcus faecalis P-2473, read-out: minimum inhibitory concentration (MIC)
# [33] = NIHJJC2, Escherichia coli NIHJ JC-2, read-out: minimum inhibitory concentration (MIC)
# [34] = P2381, Proteus mirabilis P-2381, read-out: minimum inhibitory concentration (MIC)
smiles,measurement,setting,value
CCn1cc(C(=O)O)c(=O)c2cc(F)c(N3CCNCC3)nc21 [Compound 1],MIC,[1],0.1 µg/mL
same,MIC,[2],0.78 µg/mL
same,MIC,[3],0.78 µg/mL
same,MIC,[4],1.56 µg/mL
same,MIC,[5]; Proteus morganii Kono,0.2 µg/mL
same,MIC,[6],0.1 µg/mL
same,MIC,[7],0.39 µg/mL
same,LD50 at 168 h,[8],> 4000 mg/kg
same,MIC,[9]; [29],0.39 µg/mL
same,MIC,[10]; [30],0.39 µg/mL
same,MIC,[11]; [31],0.2 µg/mL
same,MIC,[12],0.78 µg/mL
same,ED50,[13],2.4 mg/kg
same,ED50,[14],9 mg/kg
same,ED50,[15],1.8 mg/kg
same,MIC,[16]; [32],12.5 µg/mL
same,concentration at 0.5 h,"[17]; dog, plasma, 0.5 hr after oral 25 mg/kg, nd: nondetective",600 ng/mL
same,concentration at 1 h,"[17]; dog, plasma, 1 hr after oral 25 mg/kg, nd: nondetective",2400 ng/mL
same,concentration at 2 h,"[17]; dog, plasma",5500 ng/mL
same,concentration at 3 h,"[17]; dog, plasma",5900 ng/mL
same,concentration at 6 h,"[17]; dog, plasma",4200 ng/mL
same,concentration at 8 h,"[17]; dog, plasma",3700 ng/mL
same,concentration at 10 h,"[17]; dog, plasma",2400 ng/mL
same,MIC,"[18]; P140A, Escherichia coli P-140a",0.2 µg/mL
same,MIC,[19],12.5 µg/mL
same,MIC,[20],0.2 µg/mL
same,MIC,[21],0.2 µg/mL
same,MIC,[22]; [33],0.2 µg/mL
same,concentration at 24 h,[23],606000 ng/mL
same,dose excreted at 24 h,[23],40.7%
same,ED50,[24],10 mg/kg
same,MIC,[25]; [34],0.39 µg/mL
same,MIC,[26],0.1 µg/mL
"C=Cn1cc(C(=O)O)c(=O)c2cc(F)c(N3CCNCC3)nc21 [Compound 2, 6-Fluoro-1,4-dihydro-4-oxo-7-(1-piperazinyl)-1-vinyl-1,8-naphthyridine-3-carboxylic acid]",MIC,[1],0.05 µg/mL
same,MIC,[2],3.13 µg/mL
same,MIC,[3],1.56 µg/mL
same,MIC,[4],1.56 µg/mL
same,antibacterial activity (in words),[27],very high antibacterial activities
same,MIC,[5]; Proteus morganii Kono,0.1 µg/mL
same,MIC,[6],0.05 µg/mL
same,MIC,[7],0.2 µg/mL
same,LD50 at 168 h,[8],> 4000 mg/kg
same,MIC,[9]; Pseudomonas aeruginosa,0.2 µg/mL
same,MIC,"[10]; Serratia marcescens, IFC3736, read-out: minimum inhibitory concentration (MIC)",0.2 µg/mL
same,MIC,[11]; [31],1 µg/mL
same,MIC,[12],0.39 µg/mL
same,ED50,[13],0.56 mg/kg
same,therapeutic effect against ascending kidney infection (in words),"[13]; compounds 1 and 2 (1, 1' and 2 elsewhere in the source) compared with compound D",clearly better than that of compound D
same,ED50,[14],2.4 mg/kg
same,ED50,[15],1.3 mg/kg
same,MIC,[16]; [32],25 µg/mL
same,concentration at 2 h,"[17]; dog, plasma",1500 ng/mL
same,concentration at 3 h,"[17]; dog, plasma",2800 ng/mL
same,concentration at 6 h,"[17]; dog, plasma",5500 ng/mL
same,concentration at 8 h,"[17]; dog, plasma",5200 ng/mL
same,concentration at 10 h,"[17]; dog, plasma",4400 ng/mL
same,absorption in the body by oral administration (in words),[17]; oral 25 mg/kg,well absorbed
same,period after administration with plasma level higher than the MIC values against most bacteria,[17]; oral 25 mg/kg,at least 2 hours to even more than 10 hours
same,MIC,"[18]; P140A, Escherichia coli P-140a",0.1 µg/mL
same,MIC,[19],12.5 µg/mL
same,MIC,[20],0.1 µg/mL
same,"therapeutic effect in vivo against Gram-negative bacteria, relative to compound D",[28]; Gram-negative including Pseudomonas aeruginosa,clearly better
same,"therapeutic effect against Gram-negative bacteria, relative to compound 1 or 1'","[28]; systemic infection, Gram-negative",superior
same,"therapeutic effect against Gram-negative bacteria, relative to compounds A, C, E, F, G, H and J","[28]; systemic infection, Gram-negative, especially Pseudomonas aeruginosa",better therapeutic effects
same,"therapeutic effect against Gram-positive bacteria, relative to compound 1 or 1'","[28]; systemic infection, Gram-positive",inferior
same,MIC,[21],0.1 µg/mL
same,MIC,[22]; [33],0.1 µg/mL
same,urinary excretion (in words),[23]; 24 hours,fairly good
same,concentration at 24 h,[23],326000 ng/mL
same,dose excreted at 24 h,[23],29.4%
same,ED50,[24],33.4 mg/kg
same,MIC,"[25]; Proteus mirabilis, P2381, read-out: minimum inhibitory concentration (MIC)",0.2 µg/mL
same,MIC,[26],0.05 µg/mL
"CCn1cc(C(=O)O)c(=O)c2cc(F)c(N3CCNCC3)cc21 [Compound D, 1-Ethyl-6-fluoro-1,4-dihydro-4-oxo-7-(1-piperazinyl)quinoline-3-carboxylic acid]",MIC,[1],0.05 µg/mL
same,MIC,[2],0.78 µg/mL
same,MIC,[3],0.39 µg/mL
same,MIC,[4],0.78 µg/mL
same,MIC,[5],0.1 µg/mL
same,MIC,[6],0.05 µg/mL
same,MIC,[7],0.2 µg/mL
same,MIC,[9]; [29],0.39 µg/mL
same,MIC,[10]; [30],0.2 µg/mL
same,MIC,"[11]; Enterobacter cloacae, P2540, read-out: minimum inhibitory concentration (MIC)",0.1 µg/mL
same,MIC,[12],0.78 µg/mL
same,ED50,[13],16.1 mg/kg
same,ED50,[14],15.5 mg/kg
same,ED50,[15],4.7 mg/kg
same,MIC,"[16]; P2473, read-out: minimum inhibitory concentration (MIC)",3.13 µg/mL
same,MIC,[18]; Escherichia coli,0.1 µg/mL
same,MIC,[20],0.2 µg/mL
same,MIC,[21],0.1 µg/mL
same,MIC,"[22]; Escherichia coli, NIHJJC2, read-out: minimum inhibitory concentration (MIC)",0.1 µg/mL
same,ED50,[24],21.9 mg/kg
same,MIC,[25]; [34],0.2 µg/mL
same,MIC,[26],0.05 µg/mL
